This experiment addresses PIK3CA (human) (UniProt P42336). The experiment in a line: Assessment of PIK3CA Kinase Activity.

Here are results for 81 molecules from the Kinase Knowledgebase extract (Sharma et al. 2016).

PIK3CA (human), sequence (P42336 whole entry, looked up): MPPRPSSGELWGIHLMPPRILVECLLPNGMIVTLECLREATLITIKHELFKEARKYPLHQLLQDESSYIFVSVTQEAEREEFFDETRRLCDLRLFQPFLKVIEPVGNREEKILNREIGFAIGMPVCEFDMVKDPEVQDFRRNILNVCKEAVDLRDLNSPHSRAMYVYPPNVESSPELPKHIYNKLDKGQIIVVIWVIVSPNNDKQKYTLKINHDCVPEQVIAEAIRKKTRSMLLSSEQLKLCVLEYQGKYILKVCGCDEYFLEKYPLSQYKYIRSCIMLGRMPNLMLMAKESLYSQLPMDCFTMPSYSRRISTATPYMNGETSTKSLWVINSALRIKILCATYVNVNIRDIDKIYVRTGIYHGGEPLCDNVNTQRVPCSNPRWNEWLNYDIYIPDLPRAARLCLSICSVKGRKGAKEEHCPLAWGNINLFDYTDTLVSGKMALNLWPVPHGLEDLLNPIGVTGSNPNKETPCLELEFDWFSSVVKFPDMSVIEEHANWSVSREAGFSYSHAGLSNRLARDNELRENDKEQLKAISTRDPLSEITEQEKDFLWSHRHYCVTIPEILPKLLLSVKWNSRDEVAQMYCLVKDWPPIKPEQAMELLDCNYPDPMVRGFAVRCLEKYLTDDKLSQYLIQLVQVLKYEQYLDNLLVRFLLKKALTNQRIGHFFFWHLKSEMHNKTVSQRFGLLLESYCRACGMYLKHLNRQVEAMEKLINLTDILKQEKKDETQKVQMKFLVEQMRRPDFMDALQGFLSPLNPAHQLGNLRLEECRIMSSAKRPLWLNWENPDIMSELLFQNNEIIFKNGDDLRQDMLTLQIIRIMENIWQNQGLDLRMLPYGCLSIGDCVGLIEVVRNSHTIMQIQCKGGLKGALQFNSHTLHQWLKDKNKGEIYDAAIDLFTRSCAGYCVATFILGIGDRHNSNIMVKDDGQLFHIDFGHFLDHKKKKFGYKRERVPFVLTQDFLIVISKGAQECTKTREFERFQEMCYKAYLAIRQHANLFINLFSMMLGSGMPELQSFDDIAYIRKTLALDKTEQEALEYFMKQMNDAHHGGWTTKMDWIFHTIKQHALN

Turning to `CS(=O)(=O)N1CC(Nc2ccc3c(n2)-c2sc(-c4ncnn4-c4ccc(F)cc4F)cc2CCO3)C1`, the IC50 was less than 1000 nM.
In turn, `O=C(c1nc2c(s1)CCOc1cc(-c3cn[nH]c3)ccc1-2)N1CC(F)(F)C1` had a concentration for half-maximal inhibition (IC50) of less than 1000 nM.
In turn, `CC(C)N1CCN(c2ccc3c(n2)-c2sc(-c4ncnn4-c4ccc(F)cc4F)cc2CCO3)CC1` came in with an IC50 of less than 1000 nM.
In turn, `CC(C)n1ncnc1-c1nc2c(s1)CCOc1cc(-c3cnn(CCOP(=O)(O)O)c3)ccc1-2` yielded an IC50 of less than 1000 nM.
For the molecule `O=C(c1nc2c(s1)CCOc1cc(-c3cn[nH]c3)ccc1-2)N(CCO)C1CCCC1`, the IC50 is less than 1000 nM.
In the case of `CC(C)(C(=O)O)n1cc(-c2ccc3c(c2)OCCc2sc(-c4ncnn4CC(F)(F)F)nc2-3)cn1` it was less than 1000 nM.
In turn, `CC(C)n1ncnc1-c1nc2c(s1)CCOc1ccc(C3CN(CC(C)(C)O)C3)cc1-2` came in with an IC50 of less than 1000 nM.
For `CCN(CC)CCn1cc(-c2ccc3c(c2)OCCc2sc(-c4ncnn4CC(F)(F)F)nc2-3)cn1`, the IC50 was less than 1000 nM.
For the molecule `Fc1ccc(-n2ncnc2-c2cc3c(s2)-c2nc(NC4COC4)ccc2OCC3)c(F)c1`, the IC50 was less than 1000 nM.
As to `O=C(c1nc2c(s1)CCOc1cc(-c3cn[nH]c3)ccc1-2)N1CCC(CO)CC1`, the IC50 was less than 1000 nM.
Molecule `CN1CCC(n2ncnc2-c2nc3c(s2)CCOc2cc(-c4cnn(CC(C)(C)O)c4)ccc2-3)CC1` yielded an IC50 of less than 1000 nM.
With `O=C(O)CNc1ccc2c(n1)-c1sc(-c3ncnn3-c3ccc(F)cc3F)cc1CCO2` the figure was less than 1000 nM; with `CC(C)n1ncnc1-c1nc2c(s1)CCOc1ccc(-c3ccc(F)nc3)cc1-2`, less than 1000 nM.
Turning to `COc1ccc(-c2ccc3c(n2)-c2sc(-c4ncnn4-c4ccc(F)cc4F)cc2CCO3)cn1`, the IC50 was less than 1000 nM.
`CN(C(=O)c1cc2c(s1)-c1ccc(C(=O)NCCS(C)(=O)=O)cc1OCC2)c1cc(C(=O)N2CC(F)(F)C2)ccc1Cl` came in with an IC50 of less than 1000 nM.
In the case of `CC(C)N(CCCO)C(=O)c1nc2c(s1)CCOc1cc(-c3cn[nH]c3)ccc1-2`, the half-maximal inhibitory concentration (IC50) was less than 1000 nM.
The molecule `C[C@H](O)C(=O)N1CCN(c2ccc3c(n2)-c2sc(-c4ncnn4-c4ccc(F)cc4F)cc2CCO3)CC1` yielded an IC50 of less than 1000 nM.
As to `CC(C)n1ncnc1-c1nc2c(s1)CCOc1ccc(C(O)C(F)(F)F)cc1-2` (stereo unspecified), the IC50 is less than 1000 nM.
In turn, `C[C@@H]1CN(c2ccc3c(n2)-c2sc(-c4ncnn4-c4ccc(F)cc4F)cc2CCO3)C[C@H](C)N1CC(F)(F)F` displayed an IC50 of less than 1000 nM.
`CC(C)n1ncnc1-c1nc2c(s1)CCOc1ccc(C3CN(C(=O)[C@H](C)O)C3)cc1-2` registered an IC50 of less than 1000 nM.
`OCCNc1ccc2c(n1)-c1sc(-c3ncnn3-c3ccc(F)cc3F)cc1CCO2`: the IC50 is less than 1000 nM.
For the molecule `CC(C)n1ncnc1-c1cc2c(s1)-c1ccc(-c3cccc(S(C)(=O)=O)c3)cc1OCC2`, the IC50 was less than 1000 nM.
In the case of `Cc1nc(-c2nc3c(s2)CCOc2cc([C@H]4CCCNC4)ccc2-3)n(C(C)C)n1` it was less than 1000 nM; in that of `CC(C)n1cnnc1-c1nc2c(s1)CCOc1cc(C(=O)Nc3ccon3)ccc1-2`, less than 1000 nM.
Turning to `CC(=O)N1CCCN(c2ccc3c(n2)-c2sc(-c4ncnn4-c4ccc(F)cc4F)cc2CCO3)CC1`, the IC50 was less than 1000 nM.
`CC(C)n1ncnc1-c1nc2c(s1)CCOc1ccc(-c3ccc(S(C)(=O)=O)cc3)cc1-2` returned an IC50 of less than 1000 nM.
In turn, `CC(C)n1ncnc1-c1nc2c(s1)CCOc1cc(O[C@@H](C)C(N)=O)ccc1-2` gave an IC50 of less than 1000 nM.
In the case of `CCN1[C@H](C)CN(c2ccc3c(n2)-c2sc(-c4ncnn4-c4ccc(F)cc4F)cc2CCO3)C[C@@H]1C` it was less than 1000 nM; in that of `O=C(c1nc2c(s1)CCOc1cc(-c3cn[nH]c3)ccc1-2)N1CC[C@@H](C(F)(F)F)C1`, less than 1000 nM; in that of `FC(F)(F)Cn1ncnc1-c1nc2c(s1)CCOc1cc(-c3cnn(CCN4CCOCC4)c3)ccc1-2`, less than 1000 nM.
`CC(C)n1ncnc1-c1nc2c(s1)CCOc1cc(C3CN(CC(=O)N4CCOCC4)C3)ccc1-2` showed an IC50 of less than 1000 nM.
`CN(C)S(=O)(=O)N1CCN(C(=O)c2nc3c(s2)CCOc2cc(-c4cn[nH]c4)ccc2-3)CC1` displayed an IC50 of less than 1000 nM.
As for `CC(=O)N1CCN(c2ccc3c(n2)-c2sc(-c4ncnn4-c4ccc(F)cc4F)cc2CCO3)CC1`, the IC50 is less than 1000 nM.
`CC(C)N(CCO)C(=O)c1nc2c(s1)CCOc1cc(-c3cnn(C)c3)ccc1-2` showed an IC50 of less than 1000 nM.
With `CN(C)CCCc1ccc2c(n1)-c1sc(-c3ncnn3-c3ccc(F)cc3F)cc1CCO2` the figure was less than 1000 nM.
`O=C(c1nc2c(s1)CCOc1cc(-c3cn[nH]c3)ccc1-2)N1CCN(C(=O)[C@H]2CCCO2)CC1` registered an IC50 of less than 1000 nM.
With `CC1CCN(C(=O)c2nc3c(s2)CCOc2cc(-c4cn[nH]c4)ccc2-3)CC1`, the IC50 was less than 1000 nM.
`O=C(c1nc2c(s1)CCOc1cc(-c3cn[nH]c3)ccc1-2)N1CCC(O)CC1` gave an IC50 of less than 1000 nM.
Consider `CC(C)(O)Cn1cc(-c2ccc3c(c2)OCCc2sc(-c4nccn4C4CNC4)nc2-3)cn1`, for which the IC50 was less than 1000 nM.
In the case of `CS(=O)(=O)N1CCN(C(=O)c2nc3c(s2)CCOc2cc(-c4cn[nH]c4)ccc2-3)CC1` it was less than 1000 nM.
Consider `CN(C)CCNc1ccc(-c2ccc3c(n2)-c2sc(-c4ncnn4-c4ccc(F)cc4F)cc2CCO3)cn1`, for which the IC50 is less than 1000 nM.
Molecule `CN1CC(C)(C)N(c2nc3c(s2)CCOc2cc(-c4cnn(CC(C)(C)O)c4)ccc2-3)C1=O` yielded an IC50 of less than 1000 nM.
For the molecule `CC(C)N(CCO)C(=O)c1nc2c(s1)CCOc1ccc(-c3cnn(CC(C)(C)O)c3)cc1-2`, the IC50 was less than 1000 nM.
`CN(C)C(=O)Cn1cc(-c2ccc3c(c2)OCCc2sc(-c4ncnn4CC(F)(F)F)nc2-3)cn1` showed an IC50 of less than 1000 nM.
Turning to `CC(C)n1c(-c2nc3c(s2)CCOc2cc(-c4cnn(CCO)c4)ccc2-3)nnc1C(F)(F)F`, the concentration for half-maximal inhibition (IC50) was less than 1000 nM.
With `CN(C(=O)c1cc2c(s1)-c1ccc(C(=O)NCCS(C)(=O)=O)cc1OCC2)c1cc(C(=O)N2CC(O)C2)ccc1Cl` the figure was less than 1000 nM; with `CC1(C)CCCN(C(=O)c2nc3c(s2)CCOc2cc(-c4cn[nH]c4)ccc2-3)C1`, less than 1000 nM; with `CC(C)n1cnnc1-c1nc2c(s1)CCOc1cc(CNCC(N)=O)ccc1-2`, less than 1000 nM.
The molecule `O=C(c1nc2c(s1)CCOc1cc(-c3cn[nH]c3)ccc1-2)N1CCC(c2ccc(F)cc2F)CC1` returned a half-inhibitory concentration (IC50) of less than 1000 nM.
`CC(C)N(CCO)C(=O)c1nc2c(s1)CCOc1ccc(-c3cnn(CCO)c3)cc1-2` displayed a concentration for half-maximal inhibition (IC50) of less than 1000 nM.
With `CC(C)n1ncnc1-c1nc2c(s1)CCOc1ccc(-c3cccnc3)cc1-2`, the IC50 was less than 1000 nM.
Consider `Cc1ccc(-c2ccc3c(n2)-c2sc(-c4ncnn4-c4ccc(F)cc4F)cc2CCO3)cn1`, for which the concentration for half-maximal inhibition (IC50) is less than 1000 nM.
In the case of `CC(C)(CN)n1cc(-c2ccc3c(c2)OCCc2sc(-c4ncnn4CC(F)(F)F)nc2-3)cn1`, the IC50 was less than 1000 nM.
With `CC(C)N(CCO)C(=O)c1nc2c(s1)CCOc1cc(-c3cnn(CCN4CCOCC4)c3)ccc1-2` the figure was less than 1000 nM; with `NC(=O)CNc1ccc2c(n1)-c1sc(-c3ncnn3-c3ccc(F)cc3F)cc1CCO2`, less than 1000 nM.
`CC(C)n1ncnc1-c1nc2c(s1)CCOc1cc(C3CN(CC(F)(F)F)C3)ccc1-2` showed an IC50 of less than 1000 nM.
In turn, `CC(CO)n1ncnc1-c1nc2c(s1)CCOc1cc(-c3cnn(CC(C)(C)O)c3)ccc1-2` (stereo unspecified) came in with an IC50 of less than 1000 nM.
On to `CC(C)n1ncnc1-c1nc2c(s1)CCOc1ccc(-c3cccn(CC(N)=O)c3=O)cc1-2`, for which the concentration for half-maximal inhibition (IC50) was less than 1000 nM.
In the case of `Cc1ccncc1-c1ccc2c(c1)-c1nc(C(=O)N(CCO)C(C)C)sc1CCO2` it was less than 1000 nM.
In the case of `CC(C)Oc1ncccc1-c1ccc2c(c1)-c1nc(-c3ncnn3C(C)C)sc1CCO2` it was less than 1000 nM; in that of `O=C(c1nc2c(s1)CCOc1cc(-c3cn[nH]c3)ccc1-2)N(CCO)C1CCCCC1`, less than 1000 nM; in that of `O=S1(=O)CCN(c2ccc3c(n2)-c2sc(-c4ncnn4-c4ccc(F)cc4F)cc2CCO3)CC1`, less than 1000 nM.
`CC(C)n1ncnc1-c1nc2c(s1)CCOc1cc(C3CCN(CC(=O)N(C)C)CC3)ccc1-2` returned an IC50 of less than 1000 nM.
For `CC(C)n1nc(N)nc1-c1cc2c(s1)-c1ccc(-c3cnn(CC(C)(C)O)c3)cc1OCC2`, the IC50 is less than 1000 nM.
`CC(=O)N1CCC(Nc2ccc3c(n2)-c2sc(-c4ncnn4-c4ccc(F)cc4F)cc2CCO3)CC1` came in with an IC50 of less than 1000 nM.
`CC(C)n1ncnc1-c1nc2c(s1)CCOc1cc(-c3cnn(C(C)(C)C(=O)NC4CN(C)C4)c3)ccc1-2`: the IC50 is less than 1000 nM.
With `CC(C)n1ncnc1-c1nc2c(s1)CCOc1cc(C3CCN(S(C)(=O)=O)C3)ccc1-2` (stereo unspecified), the IC50 was less than 1000 nM.
Molecule `CC(C)n1ncnc1-c1nc2c(s1)CCOc1ccc(C3CN(Cc4ccc(F)cc4F)C3)cc1-2` gave a half-maximal inhibitory concentration (IC50) of less than 1000 nM.
For `Cc1nc(-c2nc3c(s2)CCOc2cc(-c4cnn(C5CN(CCO)C5)c4)ccc2-3)n(C(C)C)n1`, the IC50 was less than 1000 nM.
The molecule `C[C@H]1COCCN1C(=O)c1nc2c(s1)CCOc1cc(-c3cn[nH]c3)ccc1-2` had an IC50 of less than 1000 nM.
Turning to `O=C(c1nc2c(s1)CCOc1cc(-c3cn[nH]c3)ccc1-2)N1CCC1`, the IC50 was less than 1000 nM.
With `CC(C)Nc1ccc2c(n1)-c1sc(-c3ncnn3-c3ccc(F)cc3F)cc1CCO2`, the IC50 was less than 1000 nM.
Molecule `CC(C)n1ncnc1-c1nc2c(s1)CCOc1ccc(-c3cccn(C)c3=O)cc1-2` yielded an IC50 of less than 1000 nM.
For the molecule `CC(C)(O)Cn1cc(-c2ccc3c(c2)OCCc2sc(-c4nccn4CC(F)(F)F)nc2-3)cn1`, the IC50 was less than 1000 nM.
In the case of `Fc1ccc(-n2ncnc2-c2cc3c(s2)-c2ccc(C4CNC4)cc2OCC3)c(F)c1` it was less than 1000 nM.
In the case of `N#CC1CCN(C(=O)c2nc3c(s2)CCOc2cc(-c4cn[nH]c4)ccc2-3)CC1` it was less than 1000 nM.
In turn, `CN(CCO)C(=O)c1ccc(Cl)c(N(C)C(=O)c2cc3c(s2)-c2ccc(C(=O)NCCS(C)(=O)=O)cc2OCC3)c1` gave an IC50 of less than 1000 nM.
Turning to `CC(CO)Nc1ccc2c(n1)-c1sc(-c3ncnn3-c3ccc(F)cc3F)cc1CCO2` (stereo unspecified), the concentration for half-maximal inhibition (IC50) is less than 1000 nM.
On to `CC(O)c1ccc2c(c1)OCCc1sc(-c3ncnn3CC(F)(F)F)nc1-2` (stereo unspecified), for which the IC50 is less than 1000 nM.
In turn, `O=C(c1nc2c(s1)CCOc1cc(-c3cn[nH]c3)ccc1-2)N1CCCN(c2ccncc2)CC1` yielded an IC50 of less than 1000 nM.
Turning to `O=C(c1nc2c(s1)CCOc1cc(-c3cn[nH]c3)ccc1-2)N1CC[C@@H](N2CCOCC2)C1`, the IC50 is less than 1000 nM.
